Experimental data as given in ChEMBL document CHEMBL1128168, “An efficient synthesis of the benzhydrylpiperazine delta opioid agonist (+)-BW373U86” (Bioorg Med Chem Lett, 1995).

Target: Delta-type opioid receptor (Homo sapiens) (UniProt P41143)
Experiment: Compound was tested for delta-opioid receptor agonistic activity;A - found to be highly selective
Type: functional
Settings: filed as agonist

Sequence of Delta-type opioid receptor (Homo sapiens) (P41143 whole entry): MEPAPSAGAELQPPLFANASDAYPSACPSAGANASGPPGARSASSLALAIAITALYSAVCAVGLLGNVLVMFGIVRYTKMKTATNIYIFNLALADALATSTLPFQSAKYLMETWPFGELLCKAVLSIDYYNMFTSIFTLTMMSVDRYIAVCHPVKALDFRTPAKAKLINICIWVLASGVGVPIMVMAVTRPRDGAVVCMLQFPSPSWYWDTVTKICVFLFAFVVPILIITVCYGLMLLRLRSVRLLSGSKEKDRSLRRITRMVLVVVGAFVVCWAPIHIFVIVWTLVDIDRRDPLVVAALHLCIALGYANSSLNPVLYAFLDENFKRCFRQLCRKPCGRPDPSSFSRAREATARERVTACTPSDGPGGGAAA

C=CCN1C[C@H](C)N([C@H](c2ccc(C(=O)N(CC)CC)cc2)c2cccc(O)c2)C[C@H]1C
Activity: Agonist
